Assay results taken from US20090093517A1, “BIS1,2,3,4-TETRAHYDROISOQUINOLINE DERIVATIVES AND THEIR USES AS PHARMACEUTICALS” (UNIVERSITE DE LIEGE, priority 2006, published 2009).
Where a name gives a salt, the structure may show the parent alone.

Tested on: apamin-sensitive sites of the SK channels
Experiment: Competition binding between 125I-apamin and bis-tetrahydroisoquinoline derivatives on rat cortical synaptosomes
Conditions: for % of 125I-apamin displaced at 10 μM: 10 μM compound, ±10 pM 125I-apamin, rat cortical synaptosomes, 1 h at 0° C.; for Ki / potential to interact with apamin-sensitive sites compared with NML: comparison in words with N-Methyl-Laudanosine; for Ki: separated stereoisomers, rat cortical apamin sensitive sites, 125I-apamin
Method: These experiments are used to evaluate the potency of the bis-tetrahydroisoquinoline derivatives to interact with the apamin-sensitive sites of the SK channels, the selected target for which a blockade is expected to be useful in the treatment of Alzheimer's disease, Parkinson's disease, schizophrenia, cognitive dysfunction, or depression. Two reference compounds are also tested for comparison
Rats (male Wistar, ±250 g) were killed by decapitation and the brains were quickly removed and kept on ice during dissection. Crude cortex was dispersed in 0.32 M sucrose by using a Pottero homogenizer. After a first centrifugation at 1500×g for 10 min, the supernatant was centrifuged at 25000×g for 10 min. The resulting pellet was dispersed in 5 mL 0.32 M sucrose to be aliquoted. Protein concentration was determined by the method of Hartree with bovine serum albumin as a standard.^36
The buffer consisted of a 10 mM Tris-HCl (pH 7.5) solution containing 5.4 mM KCl and 0.1% bovine serum albumin. The radioligand was ^125I-apamin (Perkin-Elmer, Specific activity 81.4 TBq mmol^−1). Glass fibre filters (Whatman GF/C) used in these experiments were coated for 1 h in 0.5% polyethylenimine and then washed with 2.5 mL of the ice-cold buffer just before use. Binding experiments were always terminated as follows. Aliquots were filtered under reduced pressure through Whatman filters. Filters were rapidly washed twice with 2.5 mL of buffer. The radioactivity remaining on the filter was evaluated with a Packard Tri-Carb 1600TR liquid scintillation analyser with an efficacy of 69%. ^125I-apamin binding to the filters was also estimated in the absence of synaptosomes. This binding was also substracted from the total binding. Curve fitting was carried out using GraphPad Prism.
Saturation Binding Experiments—Synaptosomes (0.2 mg of protein/mL) were incubated with increasing concentrations of ^125I-apamin (25 μL) with 975 μL of incubation buffer for 1 h at 0° C. Samples were then filtered on Whatman GF/C filter and the radioactivity was measured as described above. Non specific binding was determined in parallel experiments in the presence of an excess of unlabeled apamin (0.1 μM) and subtracted from the total binding to obtain the specific binding.
Competition Experiments between ^125I-apamin and Bis-tetrahydroisoquinoline derivatives—Synaptosomes (0.2 mg of protein/mL) were incubated for 1 h at 0° C. with ±10 pM of ^125I-apamin (25 μL) and nine concentrations of bis-tetrahydroisoquinoline derivatives (10^−4 to 10^−7 M). Non specific binding was determined in the presence of an excess of unlabeled apamin (0.1 μM). Samples were then filtered on Whatman filter and the radioactivity was measured as described above.

Molecule: COc1cc2c(cc1OC)C(CCCCCC1c3cc(OC)c(OC)cc3CCN1C)N(C)CC2.Cl (centres unmarked) [Compound 4f, 1,5-bis[1-(6,7-dimethoxy-2-methyl-1,2,3,4-tetrahydroisoquinolyl)]-pentane hydrochloride]
- % of 125I-apamin displaced at 10 μM: 78%

Molecule: COc1cc2c(cc1OC)C(CCCCC1c3cc(OC)c(OC)cc3CCN1C)N(C)CC2.Cl (centres unmarked) [Compound 4e E1, 1,4-bis[1-(6,7-dimethoxy-2-methyl-1,2,3,4-tetrahydroisoquinolyl)]-butane hydrochloride]
- Ki / potential to interact with apamin-sensitive sites compared with NML: Ki superior to NML
- Ki (listed as 4e E1, hydrochloride): 588 ± 72 nM

Molecule: COc1cc2c(cc1OC)C(CCCCCC1c3cc(OC)c(OC)cc3CCN1C)N(C)CC2 (centres unmarked) [Compound 4f E2, 1,5-bis[1-(6,7-dimethoxy-2-methyl-1,2,3,4-tetrahydroisoquinolyl)]-pentane hydrochloride]
- Ki (listed as 4f E2, hydrochloride): 1300 ± 39 nM

Molecule: COc1cc2c(cc1OC)C(Cc1ccc(CC3c4cc(OC)c(OC)cc4CCN3C)cc1)N(C)CC2 (centres unmarked) [Compound 4n E1]
- Ki (listed as 4n E1): 1010 ± 144 nM

Molecule: COc1cc2c(c(OC)c1OC)[C@@H](CCC[C@H]1c3c(cc(OC)c(OC)c3OC)CCN1C)N(C)CC2 [Compound 4g MESO, 1,3-bis[1-(6,7,8-trimethoxy-2-methyl-1,2,3,4-tetrahydroisoquinolyl)]-propane hydrochloride]
- Ki: 1670 ± 77 nM

Molecule: COc1cc2c(cc1OC)C(CCCC1c3cc(OC)c(OC)cc3CCN1C)N(C)CC2 (centres unmarked) [Compound 4d E1, 1,3-bis[1-(6,7-dimethoxy-2-methyl-1,2,3,4-tetrahydroisoquinolyl)]-propane hydrochloride]
- Ki / potential to interact with apamin-sensitive sites compared with NML: Ki superior to NML
- Ki compared with dequalinium (comparison in words with dequalinium): Ki quite similar to dequalinium
- Ki (listed as 4d E1, hydrochloride): 293 ± 22 nM

Molecule: COc1cc2c(c(OC)c1OC)C(CCCCC1c3c(cc(OC)c(OC)c3OC)CCN1C)N(C)CC2.Cl (centres unmarked) [Compound 4h, 1,4-bis[1-(6,7,8-trimethoxy-2-methyl-1,2,3,4-tetrahydroisoquinolyl)]-butane hydrochloride]
- % of 125I-apamin displaced at 10 μM: 86%

Molecule: o-bis[1-(2-methyl-1,2,3,4-tetrahydroisoquinolyl)]-xylene hydrochloride [Compound 4j]
- % of 125I-apamin displaced at 10 μM: 19%
